# Reference: BigSolDB 2.1
structure (smiles),measurement,setting,value
[NH3+]C1CCCCC1.[S-]c1nc2ccccc2s1,solubility (mole fraction),"in 1,4-dioxane, 303.15 K",0.000208
same,solubility (mole fraction),"in 1,4-dioxane, 308.15 K",0.000291
same,solubility (mole fraction),"in 1,4-dioxane, 313.15 K",0.000418
same,solubility (mole fraction),"in 1,4-dioxane, 318.15 K",0.000608
same,solubility (mole fraction),"in 1,4-dioxane, 323.15 K",0.000793
same,solubility (mole fraction),"in 1,4-dioxane, 328.15 K",0.00105
same,solubility (mole fraction),"in 1,4-dioxane, 333.15 K",0.00141
same,solubility (mole fraction),"in 1,4-dioxane, 338.15 K",0.00169
same,solubility (mole fraction),"in 1,4-dioxane, 343.15 K",0.00217
same,solubility (mole fraction),"in 1,4-dioxane, 348.15 K",0.00266
same,solubility (mole fraction),"in MIBK, 303.15 K",0.000389
same,solubility (mole fraction),"in MIBK, 308.15 K",0.000506
same,solubility (mole fraction),"in MIBK, 313.15 K",0.000672
same,solubility (mole fraction),"in MIBK, 318.15 K",0.00085
same,solubility (mole fraction),"in MIBK, 323.15 K",0.00111
same,solubility (mole fraction),"in MIBK, 328.15 K",0.00141
same,solubility (mole fraction),"in MIBK, 333.15 K",0.00177
same,solubility (mole fraction),"in MIBK, 338.15 K",0.00215
same,solubility (mole fraction),"in MIBK, 343.15 K",0.00252
same,solubility (mole fraction),"in MIBK, 348.15 K",0.00306
same,solubility (mole fraction),"in toluene, 303.15 K",2e-05
same,solubility (mole fraction),"in toluene, 308.15 K",4.26e-05
same,solubility (mole fraction),"in toluene, 313.15 K",5.64e-05
same,solubility (mole fraction),"in toluene, 318.15 K",6.78e-05
same,solubility (mole fraction),"in toluene, 323.15 K",8.02e-05
same,solubility (mole fraction),"in toluene, 328.15 K",0.000121
same,solubility (mole fraction),"in toluene, 333.15 K",0.000175
same,solubility (mole fraction),"in toluene, 338.15 K",0.00026
same,solubility (mole fraction),"in toluene, 343.15 K",0.000344
same,solubility (mole fraction),"in toluene, 348.15 K",0.000421
same,solubility (mole fraction),"in water, 303.15 K",1.32e-05
same,solubility (mole fraction),"in water, 308.15 K",1.95e-05
same,solubility (mole fraction),"in water, 313.15 K",2.59e-05
same,solubility (mole fraction),"in water, 318.15 K",3.24e-05
same,solubility (mole fraction),"in water, 323.15 K",4e-05
same,solubility (mole fraction),"in water, 328.15 K",5.4e-05
same,solubility (mole fraction),"in water, 333.15 K",7.55e-05
same,solubility (mole fraction),"in water, 338.15 K",8.97e-05
same,solubility (mole fraction),"in water, 343.15 K",0.000124
same,solubility (mole fraction),"in water, 348.15 K",0.000164
